According to US5563044A, “Process for the enzymatic preparation of GRF(1-44)NH2” (Hoffmann-La Roche Inc., priority 1995, dated 1996):
Ends that are not written are not given here.

How the values were obtained:
[1] = tested on: rat pituitary cell cultures; experiment: In vitro bioassay in rat pituitary cell cultures with a specific rat growth hormone radioimmunoassay; format: cell-based; settings: relative potency; rat pituitary in vitro bioassay in which the potency of GRF(1-44)-NH2 standard is 1.00; enzymatically prepared product of Example 1
Procedure: All amino acid derivatives were of the L-configuration and purchased from Bachem (Torrance, Calif.). Porcine trypsin (Sigma, Type IX) was assayed against N^α benzoyl-L-arginine ethyl ester (BAEE) and the specific activity determined to be 1.85×10^4 U/mg. It was treated with N-tosyl-L-phenylalaninechloromethylketone (TPCK) [G. Schoellman and E. Shaw, Biochemistry, 2, 252 ([…])] and dialyzed extensively against distilled water and lyophilized to give 2.02×10^4 U/mg. N,N-Dimethylacetamide (Kodak, Spectro Grade) and 1,4-butanediol (Sigma, Gold Label) were dried over 3A sieves. Tryptic digests were carried out in solutions of the peptide (1 mg/mL) and bovine trypsin (Millipore, 0.1 mg/mL) in 0.5M NH4 HCO3 (pH 8.0) for 20 hours. All pH measurements were made with a glass electrode. In vitro bioassays were done in rat pituitary cell cultures and using a specific rat growth hormone radioimmunoassay as previously described (P. Brazeau et al., Proc. Natl. Acad. Sci. USA, 79, 7909 (1982). GRF(1-43)-OH was prepared by solid-phase synthesis as follows:
The final yield of GRF(1-44)-NH2 was 1.95 mg ([…], 37%). FAB-MS: (M+H)^+ Calc: 5040.7, Found: 5040.5. Amino Acid Anal (6M HCl; 110° C., 72 h.): Asp, 4.12(4); Thr, 0.97(1); Ser, 3.65(4); Glu, 7.54(7); Gly, 2.99(3); Ala, 5.27(5); Val, 1.04(1); Met, 0.92(1); Ile, 2.01(2); Leu, 5.13(5); Tyr, 1.87(2); Phe, 0.91(1); Lys, 2.03(2); Arg, 5.54(6). […]

[2] = qualitative statement in background; comparison of the 44, 40 and 37 amino acid forms and the free acid; cited from earlier work

| Substance | In vitro biological potency [1] | Level of activity / potency among GRF forms [2] |
| --- | --- | --- |
| GRF(1-44)-NH2 | 0.92±0.22 | full intrinsic activity and highest potency |
| GRF(1-40)-OH (YADAIFTNSYRKVLGQLSARKLLQDIMSRQQGESNQERGA-OH; UniProt P01286 32-71, looked up, fragment) [free acid form of Growth Hormone Releasing Factor mentioned in the background, reference compound] |  | substantially lower level of activity |
